According to patent US5498632A, “Esters of acyl carnitines with long-chain aliphatic alcohols and pharmaceutical compositions containing same having antibacterial activity” (Sigma-Tau Industrie Farmaceutiche Riunite S.p.A., priority 1992, dated 1996):

What was measured:
Proteus morganii (D.S.) = assay: MIC in broth, Gram- strains; type: cell-based; conditions: Morganella morganii, 18 h, read-out: Minimal Inhibitory Concentration (MIC)
Outline: (§1)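 Broth microdilution with serial two-fold dilutions in Mueller-Hinton broth. Inoculum from overnight culture matched to 0.5 McFarland and adjusted to 5.0×10^4 CFU/ml final; plates incubated 18 h at 37 °C in humidified conditions.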

Escherichia coli (92 F) = assay: MIC in broth, Gram- strains; type: cell-based; conditions: 18 h, E. coli (92 F), read-out: Minimal Inhibitory Concentration (MIC)
Outline: as §1

Proteus vulgaris (UM) = assay: MIC in broth, Gram- strains; type: cell-based; conditions: 18 h, read-out: Minimal Inhibitory Concentration (MIC)
Outline: as §1

Klebsiella oxytoca (552) = assay: MIC in broth, Gram- strains; type: cell-based; conditions: 18 h, read-out: Minimal Inhibitory Concentration (MIC)
Outline: as §1

[1] = test system: Salmonella typhimurium (D.S.); assay: MIC in broth, Gram- strains; type: cell-based; conditions: Salmonella enterica, 18 h, read-out: Minimal Inhibitory Concentration (MIC)
Outline: as §1

Proteus mirabilis (32) = assay: MIC in broth, Gram- strains; type: cell-based; conditions: 18 h, read-out: Minimal Inhibitory Concentration (MIC)
Outline: as §1

[2] = test system: Enterobacter aerogenes (UM); assay: MIC in broth, Gram- strains; type: cell-based; conditions: Klebsiella aerogenes, 18 h, read-out: Minimal Inhibitory Concentration (MIC)
Outline: as §1

[3] = test system: Klebsiella pneumoniae (7823); assay: MIC in broth, Gram- strains; type: cell-based; conditions: 18 h, read-out: Minimal Inhibitory Concentration (MIC)
Outline: as §1

[4] = test system: Pseudomonas aeruginosa (10 E); assay: MIC in broth, Gram- strains; type: cell-based; conditions: 18 h, read-out: Minimal Inhibitory Concentration (MIC)
Outline: as §1

[5] = test system: Serratia marcescens (A/1); assay: MIC in broth, Gram- strains; type: cell-based; conditions: 18 h, read-out: Minimal Inhibitory Concentration (MIC)
Outline: as §1

Escherichia coli (76 F) = assay: MIC in broth, Gram- strains; type: cell-based; conditions: 18 h, E. coli (76 F), read-out: Minimal Inhibitory Concentration (MIC)
Outline: as §1

[6] = test system: Klebsiella aerogenes (SH 1082); assay: MIC in broth, Gram- strains; type: cell-based; conditions: 18 h, read-out: Minimal Inhibitory Concentration (MIC)
Outline: as §1

Salmonella typhi (J) = assay: MIC in broth, Gram- strains; type: cell-based; conditions: Salmonella enterica, 18 h, read-out: Minimal Inhibitory Concentration (MIC)
Outline: as §1

[7] = test system: Pseudomonas aeruginosa (3 E); assay: MIC in broth, Gram- strains; type: cell-based; conditions: 18 h, read-out: Minimal Inhibitory Concentration (MIC)
Outline: as §1

Escherichia coli (R 57B) = assay: MIC in broth, Gram- strains; type: cell-based; conditions: 18 h, E. coli (R 57B), read-out: Minimal Inhibitory Concentration (MIC)
Outline: as §1

[8] = test system: Campylobacter coli LI 048; assay: MIC in agar (agar dilution); type: cell-based
Procedure: (§2) In this experiment the activity of ST 722 and ST 712 against Campylobacter and Helicobacter was investigated.
(§3) Campylobacter fetus ATCC 27374, Campylobacter coli LI 048, Campylobacter jejuni 84-ISS, and Helicobacter pylori NCTC 11637.
(§4) The culture medium was Columbia agar base supplemented with 7% (V/V) defribinated horse blood (DHB) for Campylobacter strains, and the same medium additioned with Vitox (Oxoid) for Helicobacter strain.
(§5) The Campylobacter and Helicobacter strains, preserved at -80° C. in DHB containing 10% (V/V) glycerol, were thawed and grown, in their respective culture medium, in culture flasks, which were incubated for 48 hours at 37° C. in a 10% CO2 atmosphere. After this first growth cycle, the bacteria were allowed to go through a second growth cycle in the same conditions as above.
(§6) The bacterial "patina" was then harvested by resuspension in 4-5 ml of Mueller-Hinton broth, the turbidity of which was then assessed according to Mc Farland's criteria (BRAY W. E., Clinical Laboratory Methods, 5th Ed. C. V. MOSBY, St. Louis, Mo. 1957).
(§7) The Helicobacter suspension was adjusted to an approximate concentration of 1.0×10^9 and 1.0×10^8 organisms/ml, while the Campylobacter suspension was adjusted to 1.0×10^7 and 1.0×10^6 organisms/ml.
(§8) With a Steers-type multipoint inoculator (STEERS E., FOLTZ E. L., GRAVES S., RIDEN J., 1959. Inocula-replicating apparatus for routine testing of antibacterial susceptibility to antibiotics. Antibiot. Chemoter. 9: 307-311) 1-μl volumes of the above standardized suspensions were spot-transferred into the wells of a 96-well microtiter plate, which had previously been filled with 0.2 ml/well of Mueller-Hinton agar 5% DHB, containing the test substances at different concentrations.
(§9) The plates was then incubated for 48/72 hours at 37° C. in a 10% CO2 atmosphere.

[9] = test system: Campylobacter jejuni 84-ISS; assay: MIC in agar (agar dilution); type: cell-based
Procedure: as §2, §3, §4, §5, §6, §7, §8, §9

[10] = test system: Campylobacter fetus ATCC 27374; assay: MIC in agar (agar dilution); type: cell-based
Procedure: as §2, §3, §4, §5, §6, §7, §8, §9

peritoneal macrophage = assay: Test 4: peritoneal macrophage number in mice; type: in vivo, mouse (male B6 D2 F1); conditions: 100 mg/kg/day for 5 consecutive days, oral
Procedure: Evaluation of the effect of repeated oral administrations of ST 722 on the peritoneal macrophage number in mice.
(§10) Male B6 D2 F1 mice (C. River) aged 10 weeks (6 animals each group) were orally treated with the substance ST 722 at the dose of 100 mg/kg/day for 5 consecutive days. Twenty-four hours after the last administration, the animals were sacrificed, the peritoneal exudate cells (PEC) collected and the macrophage number determined.

[11] = test system: lymphoid organs (spleen and thymus), splenocytes; assay: Test 3: body, spleen and thymus weight and splenocyte concentration; type: in vivo, mouse (male B6 D2 F1); conditions: 100 mg/kg/day for 5 consecutive days, oral
Procedure: Evaluation of the effect of repeated oral administrations of ST 722 on the body, spleen and thymus weight, and on the splenocyte concentration in mice.
as §10, with “(5” for “(6”, “organs removed and weighed,” for “peritoneal exudate cells (PEC) collected”, “splenocyte” for “macrophage”

`CCCCCCCCCCCOC(=O)CC(C[N+](C)(C)C)OC(=O)CC(C)C` [ST 722, Isovaleryl-L-Carnitine Undecyl Ester Chloride] gave an MIC (Proteus morganii (D.S.)) of 100 µg/mL, an MIC (Escherichia coli (92 F)) of 25 µg/mL and an MIC (Proteus vulgaris (UM)) of 50 µg/mL. For the same compound, the MIC (Klebsiella oxytoca (552)) was 12.5 µg/mL, the MIC [1] was 25 µg/mL and the MIC (Proteus mirabilis (32)) was over 100 µg/mL. The MIC [2] was 25 µg/mL, the MIC [3] was 12.5 µg/mL and the MIC [4] was 50 µg/mL. It also gave an MIC [5] of 50 µg/mL, an MIC (Escherichia coli (76 F)) of 25 µg/mL and an MIC [6] of 25 µg/mL. The MIC (Salmonella typhi (J)) was 25 µg/mL, the MIC [7] was 50 µg/mL and the MIC (Escherichia coli (R 57B)) was 25 µg/mL. It also gave an MIC ([8]; Campylobacter coli, LI048, I = inoculum of 1.0 × 10^3) of 3.12 µg/mL, an MIC in agar ([8]; II = inoculum of 1.0 × 10^4) of 3.12 µg/mL and an MIC ([9]; I = inoculum of 1.0 × 10^3) of 12.5 µg/mL. The MIC ([9]; II = inoculum of 1.0 × 10^4) was 12.5 µg/mL, the MIC ([10]; Campylobacter fetus, ATCC27374, I = inoculum of 1.0 × 10^3) was 100 µg/mL and the MIC in agar ([10]; II = inoculum of 1.0 × 10^4) was 100 µg/mL. For the same compound, the Body weight (peritoneal macrophage) was 28.13 ± 1.30 g, the “increase in the peritoneal macrophages number” value (peritoneal macrophage) was “about 60%” and the “toxic effect in PEC macrophage population” value (peritoneal macrophage) was “No toxic effect has been observed”. For the same compound, the “PEC M.phi.” value (peritoneal macrophage; 6 pooled samples) was 63%, the Body weight [11] was 26.50 ± 0.53 g and the Spleen weight [11] was 73.25 ± 3.84 mg. The Thymus weight [11] was 38.80 ± 3.01 mg and the “specific immunotoxic effects on the considered parameters” value [11] was “lack of specific immunotoxic effects”.
